ChEMBL document CHEMBL1201862, “PubChem BioAssay data set” (2004)
Active and inactive are the calls of the source.

Columns and labels:
[1] = molecular target: T1, Short transient receptor potential channel 4 (Mus musculus, UniProt Q9QUQ5); test: calcium entry via TRPC4 opening agents – cell-based, HEK293 TRPC4/mu-opioid, Fluo-4 calcium, dose response (AID 434937); assay type: functional
T1 sequence (Q9QUQ5 whole entry): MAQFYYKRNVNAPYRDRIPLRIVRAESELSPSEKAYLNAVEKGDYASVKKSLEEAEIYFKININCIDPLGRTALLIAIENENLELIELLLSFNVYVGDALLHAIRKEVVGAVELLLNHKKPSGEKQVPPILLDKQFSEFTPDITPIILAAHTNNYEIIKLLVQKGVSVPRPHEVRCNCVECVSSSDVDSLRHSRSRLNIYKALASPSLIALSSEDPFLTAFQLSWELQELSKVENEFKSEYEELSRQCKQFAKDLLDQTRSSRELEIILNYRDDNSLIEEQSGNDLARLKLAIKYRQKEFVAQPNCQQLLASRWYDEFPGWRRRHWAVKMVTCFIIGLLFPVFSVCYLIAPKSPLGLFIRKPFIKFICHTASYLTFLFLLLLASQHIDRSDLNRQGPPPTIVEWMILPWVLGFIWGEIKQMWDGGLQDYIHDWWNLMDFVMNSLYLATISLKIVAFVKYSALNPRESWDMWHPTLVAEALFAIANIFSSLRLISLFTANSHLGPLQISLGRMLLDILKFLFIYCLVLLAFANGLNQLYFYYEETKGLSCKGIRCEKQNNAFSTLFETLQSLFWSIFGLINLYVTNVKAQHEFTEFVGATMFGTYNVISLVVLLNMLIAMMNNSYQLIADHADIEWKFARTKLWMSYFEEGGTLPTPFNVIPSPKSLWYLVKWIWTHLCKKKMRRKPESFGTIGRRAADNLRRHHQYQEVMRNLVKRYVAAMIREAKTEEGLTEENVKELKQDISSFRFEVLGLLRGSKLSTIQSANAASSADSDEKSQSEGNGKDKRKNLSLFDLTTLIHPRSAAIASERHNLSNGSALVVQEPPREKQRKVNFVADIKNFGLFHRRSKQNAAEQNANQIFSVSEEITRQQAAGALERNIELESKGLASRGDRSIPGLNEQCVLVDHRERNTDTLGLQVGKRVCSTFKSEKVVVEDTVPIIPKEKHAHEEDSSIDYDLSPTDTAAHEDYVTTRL

[2] = molecular target: T2, Histone-lysine N-methyltransferase NSD2 (Homo sapiens, UniProt O96028); assay type: biochemical
T2 sequence (O96028 whole entry): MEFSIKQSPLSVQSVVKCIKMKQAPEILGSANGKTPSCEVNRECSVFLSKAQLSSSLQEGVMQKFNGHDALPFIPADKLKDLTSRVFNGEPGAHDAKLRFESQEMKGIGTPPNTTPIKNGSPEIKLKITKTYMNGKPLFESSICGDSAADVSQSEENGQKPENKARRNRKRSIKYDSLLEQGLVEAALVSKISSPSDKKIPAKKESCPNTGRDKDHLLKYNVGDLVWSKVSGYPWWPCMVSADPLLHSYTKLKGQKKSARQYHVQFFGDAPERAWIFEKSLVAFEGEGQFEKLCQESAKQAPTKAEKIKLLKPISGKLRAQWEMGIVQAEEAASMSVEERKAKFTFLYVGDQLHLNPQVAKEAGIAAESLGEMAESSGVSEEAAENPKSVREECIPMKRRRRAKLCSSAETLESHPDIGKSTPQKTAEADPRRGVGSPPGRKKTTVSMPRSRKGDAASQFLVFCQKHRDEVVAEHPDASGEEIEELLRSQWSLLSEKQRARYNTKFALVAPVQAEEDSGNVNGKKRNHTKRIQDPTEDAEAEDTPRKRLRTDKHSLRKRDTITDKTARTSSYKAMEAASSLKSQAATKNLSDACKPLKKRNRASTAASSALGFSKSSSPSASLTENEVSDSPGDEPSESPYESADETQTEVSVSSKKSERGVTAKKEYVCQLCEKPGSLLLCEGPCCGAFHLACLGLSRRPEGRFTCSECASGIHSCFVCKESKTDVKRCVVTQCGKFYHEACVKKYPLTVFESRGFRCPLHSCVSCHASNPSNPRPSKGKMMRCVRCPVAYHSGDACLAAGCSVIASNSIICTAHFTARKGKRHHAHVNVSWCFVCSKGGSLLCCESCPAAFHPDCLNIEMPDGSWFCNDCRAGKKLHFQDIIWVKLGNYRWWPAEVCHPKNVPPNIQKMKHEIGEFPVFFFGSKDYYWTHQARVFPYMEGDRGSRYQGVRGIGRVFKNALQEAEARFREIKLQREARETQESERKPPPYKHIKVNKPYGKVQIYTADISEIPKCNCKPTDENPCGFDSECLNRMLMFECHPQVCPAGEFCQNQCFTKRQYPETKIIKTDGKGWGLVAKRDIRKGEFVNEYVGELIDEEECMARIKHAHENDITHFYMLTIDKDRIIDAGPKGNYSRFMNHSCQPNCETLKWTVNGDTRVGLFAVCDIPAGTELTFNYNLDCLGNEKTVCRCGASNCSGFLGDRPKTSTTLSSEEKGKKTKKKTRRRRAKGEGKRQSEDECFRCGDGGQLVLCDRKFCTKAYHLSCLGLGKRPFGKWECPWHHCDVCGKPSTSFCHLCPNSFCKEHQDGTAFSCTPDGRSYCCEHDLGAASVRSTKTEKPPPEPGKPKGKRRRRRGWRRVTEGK

[3] = molecular target: Photoreceptor-specific nuclear receptor (Homo sapiens, UniProt Q9Y5X4); assay type: functional, cell-based;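 note: CHO-S cells with Gal4-NCOR and VP16-NR2E3 two-hybrid luciferase reporter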
Sequence of Photoreceptor-specific nuclear receptor (Q9Y5X4 whole entry, the tested form may be a part): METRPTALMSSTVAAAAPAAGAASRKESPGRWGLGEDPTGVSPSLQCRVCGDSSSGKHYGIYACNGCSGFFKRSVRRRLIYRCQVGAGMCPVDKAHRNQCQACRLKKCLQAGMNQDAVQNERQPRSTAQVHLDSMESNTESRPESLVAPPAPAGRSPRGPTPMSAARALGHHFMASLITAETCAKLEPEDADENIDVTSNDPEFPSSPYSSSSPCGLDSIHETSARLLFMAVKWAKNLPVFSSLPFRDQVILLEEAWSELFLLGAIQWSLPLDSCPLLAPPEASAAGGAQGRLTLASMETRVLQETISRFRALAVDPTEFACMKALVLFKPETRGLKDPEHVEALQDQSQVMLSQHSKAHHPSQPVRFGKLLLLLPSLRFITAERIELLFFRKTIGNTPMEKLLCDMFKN

[4] = Trypanosoma cruzi growth suppression in host cells – NIH3T3 host cells, beta-gal luminescence, confirmation (AID 2044); assay type: functional, cell-based;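 note: intracellular parasites grown in NIH/3T3 mouse fibroblasts as host cells; luminescent beta-galactosidase reporter signal from transgenic T. cruzi replicating inside host cells; inhibitors lower the luminescence signal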
[5] = NIH-3T3 fibroblast cytotoxicity, dose response, cytotoxicity control, cell-based, fluorescence, Alamar Blue, secondary assay (AID 2327); assay type: functional;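 note: NIH-3T3 mouse fibroblasts cultured with fluconazole at 8 µg/mL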
[6] = fluconazole-exposed Candida albicans growth modulators – fluorescence, retest, confirmation (AID 2467); assay type: functional, cell-based
[7] = NIH3T3 cell viability loss – ATP luminescence, mouse fibroblasts, counter-screen, dose response (AID 2010); assay type: functional, cell-based;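 note: cells exposed to compound for about 90 hours before reading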
[8] = tested on: HEK293; test: EBV LMP1 TES2 canonical NF-kB signalling blockers – cell-based, HEK293, luciferase, cherry-pick, dose response (AID 588343); assay type: functional; conditions: Homo sapiens
[9] = HEK-293T viability loss after treatment – luminescence, T-cell screen hits, cytotoxicity control for TCR NF-kB inhibitor project, dose response (AID 489026); assay type: functional, cell-based;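 note: cells exposed to compound about 14 hours before the viability readout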
[10] = microbe, parasite or virus in culture; assay type: functional; conditions: Mycobacterium tuberculosis
[11] = molecular target: T3, High affinity choline transporter 1 (Homo sapiens, UniProt Q9GZV3); test: human choline transporter blockers, potency – cell-based, 5-point CRC, membrane potential dye, dose response (AID 504840); assay type: functional
T3 sequence (Q9GZV3 whole entry): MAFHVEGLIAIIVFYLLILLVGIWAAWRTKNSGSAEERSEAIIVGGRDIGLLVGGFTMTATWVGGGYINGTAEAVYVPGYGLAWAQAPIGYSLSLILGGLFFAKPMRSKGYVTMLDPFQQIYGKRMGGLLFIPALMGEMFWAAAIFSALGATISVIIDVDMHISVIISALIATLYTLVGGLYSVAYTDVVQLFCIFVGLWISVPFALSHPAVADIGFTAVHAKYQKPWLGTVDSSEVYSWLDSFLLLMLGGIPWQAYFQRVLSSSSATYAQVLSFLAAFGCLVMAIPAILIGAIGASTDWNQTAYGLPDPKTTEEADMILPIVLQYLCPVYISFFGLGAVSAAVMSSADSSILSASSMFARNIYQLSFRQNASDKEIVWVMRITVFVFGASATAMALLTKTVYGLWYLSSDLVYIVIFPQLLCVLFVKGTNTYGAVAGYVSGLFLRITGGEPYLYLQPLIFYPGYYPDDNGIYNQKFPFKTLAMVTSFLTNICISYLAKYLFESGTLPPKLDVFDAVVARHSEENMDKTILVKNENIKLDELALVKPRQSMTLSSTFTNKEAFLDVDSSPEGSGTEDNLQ

[12] = tested on: Vero; test: cells; assay type: functional; conditions: Chlorocebus sabaeus
[13] = molecular target: Heat shock protein HSP 90-alpha (Homo sapiens, UniProt P07900); assay type: functional, organism-based
[14] = Luminescence Cell-Based Dose Retest to Confirm Inhibitors of Cancer Stem Cells. [Related pubchem assays (depositor defined):AID2717, AID2721]; assay type: functional; conditions: Homo sapiens
[15] = molecular target: T4, Fatty acid synthase (Homo sapiens, UniProt P49327); test: inhibition of human FAS-TE enzyme activity – biochemical, kinetic fluorescence intensity, dose response (AID 624326); assay type: functional;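 note: rate of fluorescence rise from hydrolysis of a fluorogenic O-methyl fluorescein ester substrate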
T4 sequence (P49327 whole entry): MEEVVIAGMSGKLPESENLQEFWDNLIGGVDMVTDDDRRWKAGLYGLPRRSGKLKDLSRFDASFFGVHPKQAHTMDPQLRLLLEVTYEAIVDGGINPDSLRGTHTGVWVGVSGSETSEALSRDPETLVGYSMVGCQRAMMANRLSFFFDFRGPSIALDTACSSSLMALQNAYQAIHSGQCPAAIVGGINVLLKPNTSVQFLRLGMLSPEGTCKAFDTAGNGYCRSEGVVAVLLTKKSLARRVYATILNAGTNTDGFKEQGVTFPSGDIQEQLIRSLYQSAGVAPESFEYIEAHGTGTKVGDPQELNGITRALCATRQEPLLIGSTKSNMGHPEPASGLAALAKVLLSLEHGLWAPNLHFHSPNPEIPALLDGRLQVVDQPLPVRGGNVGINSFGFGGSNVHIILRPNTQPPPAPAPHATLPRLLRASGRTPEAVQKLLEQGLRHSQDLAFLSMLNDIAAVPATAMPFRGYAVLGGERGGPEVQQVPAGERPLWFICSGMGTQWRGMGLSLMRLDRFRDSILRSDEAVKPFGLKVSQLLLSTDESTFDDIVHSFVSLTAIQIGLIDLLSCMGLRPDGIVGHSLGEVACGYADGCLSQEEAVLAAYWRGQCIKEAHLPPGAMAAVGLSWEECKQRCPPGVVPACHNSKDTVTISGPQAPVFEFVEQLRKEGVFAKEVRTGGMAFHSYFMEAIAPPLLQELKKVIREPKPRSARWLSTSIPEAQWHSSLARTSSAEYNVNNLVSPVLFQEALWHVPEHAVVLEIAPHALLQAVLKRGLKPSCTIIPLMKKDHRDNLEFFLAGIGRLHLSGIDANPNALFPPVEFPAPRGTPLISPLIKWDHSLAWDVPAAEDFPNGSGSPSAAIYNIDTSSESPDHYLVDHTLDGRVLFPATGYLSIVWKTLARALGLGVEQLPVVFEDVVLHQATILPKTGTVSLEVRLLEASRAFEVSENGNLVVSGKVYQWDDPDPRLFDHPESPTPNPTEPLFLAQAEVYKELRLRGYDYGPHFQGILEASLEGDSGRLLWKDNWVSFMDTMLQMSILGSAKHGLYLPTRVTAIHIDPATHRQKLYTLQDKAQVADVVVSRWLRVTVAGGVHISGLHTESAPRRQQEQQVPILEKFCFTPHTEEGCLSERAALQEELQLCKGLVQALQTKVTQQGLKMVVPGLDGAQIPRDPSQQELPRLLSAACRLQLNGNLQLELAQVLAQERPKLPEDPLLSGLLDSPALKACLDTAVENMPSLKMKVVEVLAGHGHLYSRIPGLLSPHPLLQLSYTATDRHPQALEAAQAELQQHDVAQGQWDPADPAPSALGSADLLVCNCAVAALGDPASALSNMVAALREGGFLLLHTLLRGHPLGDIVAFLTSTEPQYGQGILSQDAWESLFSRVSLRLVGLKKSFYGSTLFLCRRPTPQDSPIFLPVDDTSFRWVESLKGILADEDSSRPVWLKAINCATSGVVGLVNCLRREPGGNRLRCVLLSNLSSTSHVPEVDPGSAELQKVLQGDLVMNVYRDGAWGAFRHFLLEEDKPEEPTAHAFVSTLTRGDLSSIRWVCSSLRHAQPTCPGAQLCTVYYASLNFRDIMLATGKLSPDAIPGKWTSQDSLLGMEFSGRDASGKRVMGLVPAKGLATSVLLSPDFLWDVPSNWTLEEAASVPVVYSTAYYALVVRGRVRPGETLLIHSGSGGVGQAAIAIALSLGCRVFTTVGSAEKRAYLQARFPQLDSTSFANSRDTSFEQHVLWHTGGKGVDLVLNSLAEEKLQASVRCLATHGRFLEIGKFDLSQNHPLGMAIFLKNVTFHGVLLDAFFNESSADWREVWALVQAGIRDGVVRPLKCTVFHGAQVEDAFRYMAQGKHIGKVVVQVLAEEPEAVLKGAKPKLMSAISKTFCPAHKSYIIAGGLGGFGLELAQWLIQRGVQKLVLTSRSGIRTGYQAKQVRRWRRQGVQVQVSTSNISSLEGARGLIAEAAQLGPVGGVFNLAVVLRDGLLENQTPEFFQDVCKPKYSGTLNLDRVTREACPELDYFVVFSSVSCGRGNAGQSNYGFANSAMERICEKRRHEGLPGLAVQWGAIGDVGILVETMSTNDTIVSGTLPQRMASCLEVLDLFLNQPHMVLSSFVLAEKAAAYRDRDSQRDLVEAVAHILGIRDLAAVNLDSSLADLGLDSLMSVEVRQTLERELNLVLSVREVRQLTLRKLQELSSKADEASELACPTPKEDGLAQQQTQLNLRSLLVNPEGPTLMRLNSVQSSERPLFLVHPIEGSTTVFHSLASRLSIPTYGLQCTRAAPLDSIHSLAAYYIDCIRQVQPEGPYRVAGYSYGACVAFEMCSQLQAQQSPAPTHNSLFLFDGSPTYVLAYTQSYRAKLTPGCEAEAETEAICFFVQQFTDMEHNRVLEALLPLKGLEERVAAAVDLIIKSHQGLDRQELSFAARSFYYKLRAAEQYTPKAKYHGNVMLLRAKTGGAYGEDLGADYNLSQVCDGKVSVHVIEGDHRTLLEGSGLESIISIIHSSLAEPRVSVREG

[16] = molecular target: T4, Fatty acid synthase; test: inhibition of human FAS-TE enzyme activity – biochemical, endpoint fluorescence intensity, uHTS hits, dose response (AID 624327); assay type: functional;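 note: fluorescence from hydrolysis of an O-methyl fluorescein acyl ester substrate by the enzyme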
[17] = luciferase reporter signal suppression in cells – H4 neuroglioma cells, luminescence, dose response (AID 1990); assay type: functional, cell-based
[18] = tested on: Streptococcus sp. 'group A'; test: Streptococcus pyogenes SK(-)GAS viability under kanamycin – luminescence, BacTiterGlo, confirmation, counter-screen for streptokinase expression inhibitor project, dose response (AID 1900); assay type: functional, organism-based
[19] = tested on: Streptococcus; test: GAS UMAA2166 growth inhibition – luminescence, BacTiterGlo, counter-screen for streptokinase expression inhibitor project, dose response (AID 1915); assay type: functional, organism-based;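 note: potency for reduction of bacterial viability or growth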
[20] = alpha-synuclein stem-loop luciferase translation blockers – H4 neuroglioma cells, luminescence, confirmation (AID 1988); assay type: functional, cell-based
[21] = Luminescence Cell-Based Dose Response HTS to Identify Inhibitors of 5'UTR Stem-Loop Driven Prion Protein mRNA Translation in H4 Neuroglioblastoma Cells. [Related pubchem assays: 1827 (Project Summary), 1813 (Primary HTS)]; assay type: functional
[22] = cells; assay type: functional
[23] = molecular target: T5, DNA repair protein RAD52 homolog (Homo sapiens, UniProt P43351); assay type: functional, biochemical
T5 sequence (P43351 whole entry): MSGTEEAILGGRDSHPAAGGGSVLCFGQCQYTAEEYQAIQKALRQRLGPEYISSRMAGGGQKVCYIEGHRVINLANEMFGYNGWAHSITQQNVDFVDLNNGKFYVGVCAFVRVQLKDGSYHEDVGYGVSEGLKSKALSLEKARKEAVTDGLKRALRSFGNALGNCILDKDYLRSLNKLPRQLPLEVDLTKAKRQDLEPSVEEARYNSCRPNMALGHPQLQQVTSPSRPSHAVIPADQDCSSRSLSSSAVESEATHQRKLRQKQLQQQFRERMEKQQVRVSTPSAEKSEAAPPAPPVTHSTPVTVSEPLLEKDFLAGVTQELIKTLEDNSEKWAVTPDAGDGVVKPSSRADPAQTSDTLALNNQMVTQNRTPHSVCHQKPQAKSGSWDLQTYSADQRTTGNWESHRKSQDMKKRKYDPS

[24] = molecular target: Induced myeloid leukemia cell differentiation protein Mcl-1 (Homo sapiens, UniProt Q07820); assay type: functional
Sequence of Induced myeloid leukemia cell differentiation protein Mcl-1 (Q07820 whole entry): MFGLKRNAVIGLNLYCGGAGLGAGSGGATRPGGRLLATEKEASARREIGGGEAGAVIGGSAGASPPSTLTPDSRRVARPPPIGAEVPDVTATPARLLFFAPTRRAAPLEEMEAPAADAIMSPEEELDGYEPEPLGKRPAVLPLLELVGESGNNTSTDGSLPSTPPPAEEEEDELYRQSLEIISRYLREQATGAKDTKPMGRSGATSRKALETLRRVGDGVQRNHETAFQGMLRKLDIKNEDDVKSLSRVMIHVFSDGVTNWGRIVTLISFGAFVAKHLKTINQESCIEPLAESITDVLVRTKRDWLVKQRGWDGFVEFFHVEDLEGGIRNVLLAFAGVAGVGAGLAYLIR

[25] = viability of uninfected HEp-2 cells – cell-based, HTS, cytotoxicity control for RSV inhibitor project, dose response (AID 2410); assay type: functional; conditions: human respiratory syncytial virus

CCCCN(CC)CCNC(=O)c1ccc2c(Cl)c3c(nc2c1)CCC3
EC50 [1]: 0.024 µM (active)
AC50 [2]: > 20 µM (inactive)

CC(C)(C)C(=O)Nc1ccc(Sc2ccc([N+](=O)[O-])cc2)cc1
IC50 [3]: 3.51 µM (active)

CN=C(S)N=CNOCc1ccc(Cl)cc1Cl
EC50 [4]: 0.368 µM (active)
EC50 [5]: 7.07 µM (inconclusive)
EC50 [6]: < 0.03 µM (active)
IC50 [3]: 3.21 µM (active)
EC50 [7]: 7.02 µM (active)

CCC(=O)N1CCCc2cc(S(=O)(=O)N3CCN(c4ccccn4)CC3)ccc21
IC50 [3]: 2.3 µM (active)

CC1=C(C(=O)OCc2ccc3c(c2)OCO3)C(c2ccc(Cl)cc2)NC(=O)N1 (configuration not stated)
AC50 [8]: 0.299 µM (active)
IC50 [9]: > 80 µM (inactive)

Cc1c(Cl)ccc2sc(N3CCN(C(=O)C4=COCCO4)CC3)nc12
CC50 [10]: 38.1 µM (active)
IC50 [3]: 4.06 µM (active)

CCC1(C)Cc2c(sc3[nH]c(=S)n(Cc4ccccc4)c(=O)c23)CO1 (configuration not stated)
IC50 [3]: 4.95 µM (active)

O=C1CC(O)(C(F)(F)F)Oc2c1ccc1ccccc21 (configuration not stated)
IC50 [11]: 12.9 µM (active)
EC50 [1]: 9.44 µM (active)

CCN1C(=O)/C(=C\C(=O)c2cccs2)c2cc(Br)ccc21
CC50 [12]: > 25 µM (active)
AC50 [13]: 3.66 µM (active)

COc1ccc(-c2csc3nc(-c4ccccc4F)oc(=O)c23)cc1OC
AC50 [14]: 5.19 µM (active)
IC50 [15]: 6.25 µM (active)
IC50 [16]: 9.02 µM (active)

COc1ccc(C(=O)NNC(=S)NC(=O)c2ccccc2)cc1
EC50 [17]: > 120 µM (not active)
EC50 [5]: > 150 µM (inactive)
EC50 [18]: 1.18 µM (active)
EC50 [1]: 5.96 µM (active)
EC50 [19]: 3.03 µM (active)
EC50 [6]: 2.08 µM (active)
EC50 [20]: 15.5 µM (active)
EC50 [21]: 11.6 µM (active)

COc1ccc(/C=C/c2nc3ccccc3c(=O)o2)cc1
EC50 [17]: 8.15 µM (inconclusive)
AC50 [8]: 0.507 µM (active)
EC50 [20]: 7.8 µM (inconclusive)
IC50 [22]: 21.5 µM (active)
EC50 [21]: 3.01 µM (active)

CCOc1cc(/C=C/C(=O)c2ccc(C)cc2)ccc1OCC(=O)N(C)C
CC50 [12]: > 25 µM (active)

COc1cc2cc(-c3ccc(OC)c(OC)c3C)nc(N)c2cc1OC
EC50 [17]: 0.597 µM (active)
CC50 [12]: 1.67 µM (active)
AC50 [23]: 12.4 µM (active)
EC50 [20]: 0.344 µM (active)
EC50 [21]: 0.48 µM (active)

NC(=S)n1nc(-c2ccc([N+](=O)[O-])cc2)c(/N=N/c2ccc(Cl)cc2)c1O
IC50 [15]: 9.27 µM (active)
IC50 [24]: > 54 µM (active)
IC50 [16]: 17.5 µM (active)

COc1ccc(NC(=O)c2cc3ccccc3oc2=O)cc1
AC50 [8]: 0.673 µM (active)

O=C(Nc1ccc(CN2CCOCC2)cc1)c1ccc(-c2cc(Cl)ccc2Cl)o1
CC50 [10]: 29.3 µM (active)
CC50 [12]: 21.1 µM (active)
CC50 [25]: 4.45 µM (active)
